Values quoted from earlier work in patent publication US20230285286A1, “DRUG VEHICLE COMPOSITIONS AND METHODS OF USE THEREOF” (PS Therapy, Inc., priority 2016, published 2023).
Where a name gives a salt, the structure may show the parent alone.

Legend:
[1] = deionized water at 25° C.

Compound | LogP Value | Solubility in Water (PPM) [1] [PPM]
CN1CCC(=C2c3ccccc3CCn3c(C=O)cnc32)CC1 [Alcaftadine] | 3.2 | 17
CN1CCCC(n2nc(Cc3ccc(Cl)cc3)c3ccccc3c2=O)CC1 (centres unmarked) [Azelastine HCl] | 3.81 | 35
CC[C@H]1OC(=O)[C@H](C)[C@@H](O[C@H]2C[C@@](C)(OC)[C@@H](O)[C@H](C)O2)[C@H](C)[C@@H](O[C@@H]2O[C@H](C)C[C@H](N(C)C)[C@H]2O)[C@](C)(O)C[C@@H](C)CN(C)[C@H](C)[C@@H](O)[C@]1(C)O [Azithromycin] | 3.03 | 2.37
O=C(O)CCCN1CCC(O[C@@H](c2ccc(Cl)cc2)c2ccccn2)CC1.O=S(=O)(O)c1ccccc1 [Bepotastine Besilate] | – | 50
N[C@@H]1CCCCN(c2c(F)cc3c(=O)c(C(=O)O)cn(C4CC4)c3c2Cl)C1 [Besifloxacin] | 0.54 | 0
CC(C)NCC(O)COc1ccc(CCOCC2CC2)cc1 (centres unmarked) [Betaxolol HCl] | 3 | 17190
CCNC(=O)CCC/C=C\C[C@@H]1[C@@H](/C=C/[C@@H](O)CCc2ccccc2)[C@H](O)C[C@@H]1O [Bimatoprost] | 3.2 | 19
Brc1c(NC2=NCCN2)ccc2nccnc12 [Brimonidine] | – | 150
CCN[C@H]1CN(CCCOC)S(=O)(=O)c2sc(S(N)(=O)=O)cc21 [Brinzolamide] | -1.8 | 713
Nc1c(CC(=O)O)cccc1C(=O)c1ccc(Br)cc1 [Bromfenac] | 3.4 | 12
O=C(O)c1cc(=O)c2c(OCC(O)COc3cccc4oc(C(=O)O)cc(=O)c34)cccc2o1 [Cromolyn Sodium] | 4.8 | 100000
CCCC(=O)O[C@]1(C(=O)COC(C)=O)CC[C@H]2[C@@H]3C[C@H](F)C4=CC(=O)C=C[C@]4(C)[C@@]3(F)[C@@H](O)C[C@@]21C [Difluprednate] | 3.28 | 1
CCN[C@H]1C[C@H](C)S(=O)(=O)c2sc(S(N)(=O)=O)cc21 [Dorzolamide] | -1 | 699
CCOCCn1c(N2CCCN(C)CC2)nc2ccccc21 [Emedastine Difumarate] | 2.6 | 1440
NC1=NCC2c3ccccc3Cc3ccccc3N12 (centres unmarked) [Epinastine HCl] | 2.34 | –
CC[C@H]1OC(=O)[C@H](C)[C@@H](O[C@H]2C[C@@](C)(OC)[C@@H](O)[C@H](C)O2)[C@H](C)[C@@H](O[C@@H]2O[C@H](C)C[C@H](N(C)C)[C@H]2O)[C@](C)(O)C[C@@H](C)C(=O)[C@H](C)[C@@H](O)[C@]1(C)O [Erythromycin] | 2.6 | 2000
CC(=O)O[C@]1(C(C)=O)CC[C@H]2[C@@H]3C[C@H](C)C4=CC(=O)C=C[C@]4(C)[C@@]3(F)[C@@H](O)C[C@@]21C [Fluorometholone Acetate] | – | 6.27
CC(C(=O)O)c1ccc(-c2ccccc2)c(F)c1 (centres unmarked) [Flurbiprofen] | – | 5
CC(C)Cc1ccc(C(C)C(=O)O)cc1 (centres unmarked) [Ibuprofen] | – | 21
O=C(c1ccccc1)c1ccc2n1CCC2C(=O)O (centres unmarked) [Ketorolac Tromethamine] | -0.92 | 861

Compound | LogP Value | Solubility in Water (PPM) [1] [PPM]
CN1CCC(=C2c3ccccc3CC(=O)c3sccc32)CC1 [Ketotifen Fumarate] | 3.49 | 7.87
CC(C)OC(=O)CCC/C=C\C[C@@H]1[C@@H](CC[C@@H](O)CCc2ccccc2)[C@H](O)C[C@@H]1O [Latanoprost] | – | 1.29
CC(C)(C)NC[C@H](O)COc1cccc2c1CCCC2=O [Levobunolol HCl] | – | 251
N#Cc1cc(NC(=O)C(=O)O)c(Cl)c(NC(=O)C(=O)O)c1.NC(CO)(CO)CO.NC(CO)(CO)CO [Lodoxamide Tromethamine] | 0.72 | 36.1
CCOC(=O)O[C@]1(C(=O)OCCl)CC[C@H]2[C@@H]3CCC4=CC(=O)C=C[C@]4(C)[C@H]3[C@@H](O)C[C@@]21C [Loteprednol Etabonate] | 3.4 | 0.5
COc1c(N2C[C@@H]3CCCN[C@@H]3C2)c(F)cc2c(=O)c(C(=O)O)cn(C3CC3)c12 [Moxifloxacin] | – | 1146
CCCc1c2oc(C(=O)O)cc(=O)c2cc2c(=O)cc(C(=O)O)n(CC)c12 [Nedocromil Sodium] | 2.82 | 80.8
NC(=O)Cc1cccc(C(=O)c2ccccc2)c1N [Nepafenac] | 1.53 | 14
CN(C)CC/C=C1/c2ccccc2COc2ccc(CC(=O)O)cc21 [Olopatadine HCl] | 3.4 | 31.3
CC(=O)OCC(=O)[C@@]1(O)CC[C@H]2[C@@H]3CCC4=CC(=O)C=C[C@]4(C)[C@H]3[C@@H](O)C[C@@]21C [Prednisolone Acetate] | 1.332 | –
CCC(=O)[C@@]1(C)[C@H](C)C[C@H]2[C@@H]3CCC4=CC(=O)C=C[C@]4(C)[C@H]3[C@@H](O)C[C@@]21C [Rimexolone] | 4.2 | 0
C=CC[C@@H]1/C=C(\C)C[C@H](C)C[C@H](OC)[C@H]2O[C@@](O)(C(=O)C(=O)N3CCCC[C@H]3C(=O)O[C@H](/C(C)=C/[C@@H]3CC[C@@H](O)[C@H](OC)C3)[C@H](C)[C@@H](O)CC1=O)[C@H](C)C[C@@H]2OC [Tacrolimus] | 5.59 | 12
CC(C)OC(=O)CCC/C=C\C[C@@H]1[C@@H](/C=C/C(F)(F)COc2ccccc2)[C@H](O)C[C@@H]1O [Tafluprost] | 4.05 | 0
CC(C)(C)NC[C@H](O)COc1nsnc1N1CCOCC1 [Timolol Maleate] | – | 5000
NC[C@H]1O[C@H](O[C@H]2[C@H](O)[C@@H](O[C@H]3O[C@H](CO)[C@@H](O)[C@H](N)[C@H]3O)[C@H](N)C[C@@H]2N)[C@H](N)C[C@@H]1O [Tobramycin] | -5.8 | 10000
CC(C)OC(=O)CCC/C=C\C[C@@H]1[C@@H](/C=C/[C@@H](O)COc2cccc(C(F)(F)F)c2)[C@H](O)C[C@@H]1O [Travoprost] | 4.6 | 16000
COc1cc(Cc2cnc(N)nc2N)cc(OC)c1OC [Trimethoprim] | – | 999
Gentamicin | -3.1 | –
Gramicidin | – | 6
Polymyxin B | – | 0
